Measurements reported in patent US20230002359A1, “PESTICIDALLY ACTIVE FUSED BICYCLIC HETEROAROMATIC COMPOUNDS” (priority 2019, published 2023).

Legend:
Assay type in all cases: in vivo
[1] = tested on: Euschistus heros (Neotropical Brown Stink Bug); experiment: Example B2: Euschistus heros (neotropical brown stink bug), soybean leaves sprayed, N2 nymphs; details: 120 h, application rate of 200 ppm, 5 days after infestation, N2 nymphs, read-out: control in at least one of the two categories (mortality or growth inhibition)
Description: Soybean leaves on agar in 24-well microtiter plates were sprayed with aqueous test solutions prepared from 10′000 ppm DMSO stock solutions. After drying the leaves were infested with N2 nymphs. The samples were assessed for mortality and growth inhibition in comparison to untreated samples 5 days after infestation.

[2] = tested on: Plutella xylostella (Diamondback Moth); experiment: Example B9: Plutella xylostella (diamondback moth), artificial diet, eggs, 96-well; details: 216 h, application rate of 500 ppm, 9 days after infestation, read-out: control in mortality
Description: 96-well microtiter plates containing artificial diet were treated with aqueous test solutions, prepared from 10′000 ppm DMSO stock solutions, by a liquid handling robot. After drying, eggs (˜30 per well) were infested onto a netted lid which was suspended above the diet. The eggs hatch and L1 larvae move down to the diet. The samples were assessed for mortality 9 days after infestation.

[3] = tested on: Plutella xylostella (Diamond Back Moth); experiment: Example B4: Plutella xylostella (diamond back moth), artificial diet, eggs, 24-well; details: 192 h, application rate of 200 ppm, 8 days after infestation, eggs, read-out: control in at least one of the two categories (mortality or growth inhibition)
Description: 24-well microtiter plates with artificial diet were treated with aqueous test solutions prepared from 10′000 ppm DMSO stock solutions by pipetting. After drying, Plutella eggs were pipetted through a plastic stencil onto a gel blotting paper and the plate was closed with it. The samples were assessed for mortality and growth inhibition in comparison to untreated samples 8 days after infestation.

[4] = tested on: Spodoptera littoralis (Egyptian Cotton Leaf Worm); experiment: Example B8: Spodoptera littoralis (Egyptian cotton leaf worm), uptake by lettuce roots from agar, eggs; details: 144 h, test rate of 12.5 ppm, 6 days after infestation, compound absorbed by lettuce roots, read-out: control in at least one of the three categories (mortality, anti-feeding, or growth inhibition)
Excerpt: Test compounds were applied by pipette from 10′000 ppm DMSO stock solutions into 24-well plates and mixed with agar. Lettuce seeds were placed onto the agar and the multi well plate was closed by another plate which contained also agar. After 7 days the compound was absorbed by the roots and the lettuce grew into the lid plate. The lettuce leaves were then cut off into the lid plate. Spodoptera eggs were pipetted through a plastic stencil onto a humid gel blotting paper and the lid plate was closed with it. The samples were assessed for mortality, anti-feedant effect and growth inhibition in comparison to untreated samples 6 days after infestation.
The following compounds gave an effect of at least 80% control in at least one of the three categories (mortality, anti-feeding, or growth inhibition) at a test rate of 12.5 ppm: P.58, P.93, P.94, P.95, P.130, P.254, P.256.

[5] = tested on: Diabrotica Balteata (Corn Root Worm); experiment: Example B1: Diabrotica balteata (corn root worm), maize sprouts sprayed, L2 larvae; details: 96 h, application rate of 200 ppm, 4 days after infestation, L2 larvae, read-out: control in at least one of the two categories (mortality or growth inhibition)
Procedure, shortened: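 Larvae at L2 stage, 6 to 10 per well, feed on dried, spray-treated maize sprouts set on agar. Evaluation after 4 days compares mortality and growth inhibition with untreated samples.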

[6] = tested on: Spodoptera littoralis (Egyptian Cotton Leaf Worm); experiment: Example B7: Spodoptera littoralis (Egyptian cotton leaf worm), cotton leaf discs sprayed, L1 larvae; details: foliar, 72 h, application rate of 200 ppm, 3 days after infestation, L1 larvae, read-out: control in at least one of the three categories (mortality, anti-feedant effect, or growth inhibition)
Procedure, shortened: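 Spray application onto agar-supported cotton leaf discs used aqueous solutions derived from 10′000 ppm DMSO stocks. Once dry, discs were infested with five L1 larvae and evaluated after 3 days for mortality, anti-feeding and growth inhibition relative to untreated controls.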

[7] = tested on: Chilo suppressalis (Striped Rice Stemborer); experiment: Example B3: Chilo suppressalis (striped rice stemborer), artificial diet, L2 larvae; details: 144 h, application rate of 200 ppm, 6 days after infestation, L2 larvae, read-out: control in at least one of the three categories (mortality, anti-feedant effect, or growth inhibition)
Procedure, shortened: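 Artificial diet treated with aqueous dilutions of DMSO stocks (10'000 ppm stock), dried, then infested with 6-8 L2 larvae per well. Mortality, anti-feeding and growth inhibition scored against untreated samples 6 days after infestation. Control counted when any category exceeds untreated.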

[8] = tested on: Myzus persicae (Green Peach Aphid); experiment: Example B6: Myzus persicae (green peach aphid) intrinsic activity, sucrose solution; details: 120 h, test rate of 12 ppm, 5 days after infestation, intrinsic activity, read-out: mortality
Procedure, shortened: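 Mortality was read 5 days after infestation. Aphids on pea seedlings fed through a stretched Parafilm membrane on inverted 24-well plates containing sucrose solution mixed with test compound, which was diluted from 10′000 ppm DMSO stock.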

[9] = tested on: Myzus persicae (Green Peach Aphid); experiment: Example B5: Myzus persicae (green peach aphid) feeding/contact activity, sunflower leaf discs; details: foliar, 144 h, application rate of 200 ppm, 6 days after infestation
Description: Sunflower leaf discs were placed onto agar in a 24-well microtiter plate and sprayed with aqueous test solutions prepared from 10′000 ppm DMSO stock solutions. After drying, the leaf discs were infested with an aphid population of mixed ages. The samples were assessed for mortality 6 days after infestation.

C[C@H](Nc1ncnc2c(OC(F)F)cc(Cl)cc12)c1ncnn1-c1ncccn1 [P.93, 6-chloro-8-(difluoromethoxy)-N-[(1S)-1-(2-pyrimidin-2-yl-1,2,4-triazol-3-yl)ethyl]quinazolin-4-amine]
≥ 80%: percent control (mortality or growth inhibition) at 200 ppm [1] | mortality at 500 ppm [2] | percent control (mortality or growth inhibition) at 200 ppm [3] | percent control (mortality, anti-feeding or growth inhibition) at 12.5 ppm [4] | percent control (mortality or growth inhibition) at 200 ppm [5] | percent control (mortality, anti-feedant effect or growth inhibition) at 200 ppm [6] | percent control (mortality, anti-feedant effect or growth inhibition) at 200 ppm [7] | mortality at 12 ppm [8]

C[C@H](Nc1ncnc2c(I)cc(C(F)(F)F)cc12)c1ncnn1-c1ncccn1 [P.95, 8-iodo-N-[(1S)-1-(2-pyrimidin-2-yl-1,2,4-triazol-3-yl)ethyl]-6-(trifluoromethyl)quinazolin-4-amine]
≥ 80%: percent control (mortality or growth inhibition) at 200 ppm [1] | mortality at 500 ppm [2] | percent control (mortality or growth inhibition) at 200 ppm [3] | percent control (mortality, anti-feeding or growth inhibition) at 12.5 ppm [4] | mortality at 200 ppm [9] | percent control (mortality or growth inhibition) at 200 ppm [5] | percent control (mortality, anti-feedant effect or growth inhibition) at 200 ppm [6] | percent control (mortality, anti-feedant effect or growth inhibition) at 200 ppm [7] | mortality at 12 ppm [8]

C[C@H](Nc1ncnc2c(Cl)cc(OC(F)F)cc12)c1ncnn1-c1ncccn1 [P.94, 8-chloro-6-(difluoromethoxy)-N-[(1S)-1-(2-pyrimidin-2-yl-1,2,4-triazol-3-yl)ethyl]quinazolin-4-amine]
≥ 80%: mortality at 500 ppm [2] | percent control (mortality or growth inhibition) at 200 ppm [3] | percent control (mortality, anti-feeding or growth inhibition) at 12.5 ppm [4] | mortality at 200 ppm [9] | percent control (mortality or growth inhibition) at 200 ppm [5] | percent control (mortality, anti-feedant effect or growth inhibition) at 200 ppm [7] | mortality at 12 ppm [8]
